We go through four molecules from paper PMC12261233, “Photoactivatable Cyclometalated Ir(III) Compound Penetrates the Blood-Brain Barrier in 3D Spheroidal and Advanced 3D Organoid Models of Inherently Resistant and Aggressive Brain Tumors” (ACS Pharmacology & Translational Science, 2025).

One data set has as its system U87MG spheroids. In words: Antiproliferative activity, 3D spheroids, CellTiter-Glo 3D assay. The settings on record: for PI (phototoxicity index) 3D: IC50 dark / IC50 420 nm irradiated; for IC50: U87MG 3D spheroids, 90 min treatment, CellTiter-Glo 3D; for TMI (3D/2D): ratio of IC50 for 3D and 2D models under irradiation. It counts as cell-based, human. The procedure: The antiproliferative activity of the compounds under investigation was assessed using the Sulforhodamine B (SRB) assay on both 2D cell monolayers and 3D spheroids. For the 2D cell monolayer assay, cells were seeded in 96-well tissue culture plates at a density of 3 × 10^3 cells/well in 100 μL of culture medium. Following overnight incubation in a humidified CO2 incubator, the medium was replaced, and the cells were treated with the investigated compounds in a final volume of 200 μL/well of Earle’s Balanced Salt Solution (EBSS). The cells were then exposed to the tested compounds for 1.5 h under dark conditions (5% CO2, 37 °C) and subsequently irradiated with blue light (420 nm) for 30 min at an intensity of 58 W/m^2. After treatment, the samples were washed with Phosphate-Buffered Saline (PBS) and replenished with 200 μL of culture medium. Following an additional 70-h incubation, the cells were washed with PBS, fixed with trichloroacetic acid at 4 °C for 1 h, and stained with 0.4% SRB dye for 30 min. The stained cells were dissolved with Tris (10 mM), and the cell viability was assessed by measuring the absorbance at 570 nm using an Absorbance Reader (SPARK TECAN, SCHOELLER). The absorbance readings were then converted to the percentage of control (% cell survival), and the antiproliferative effects were expressed as IC50 values, which were calculated from curves plotting cell survival (%) versus drug concentration (μM) (IC50 = the concentration of the agent that inhibits cell growth by 50%). For experiments with 3D spheroids, 2500 single cells/well were seeded on ultralow attachment U-shape 96-well plates (Corning, USA) and cultured for 72 h in 3D forming medium DMEM-F12 ham medium supplemented with growth and spheroid forming factors: 2% B27 (Thermo Fisher Scientific Inc., MA, USA), epidermal growth factor (EGF; Sigma-Aldrich, Germany, 20 ng mL^–1), fibroblast growth factor (FGF2; Sigma-Aldrich, Germany, 10 ng mL^–1), and BSA (0.15%). After the 72-h spheroid formation period, the samples were treated and irradiated as described for the 2D cultures. Subsequently, the samples were cultured in the 3D forming medium for an additional 70 h, and the antiproliferative potency of the tested compounds against spheroids was determined by assessing changes in IC50 values using the CellTiterGlo-3D assay (Promega). The luminescence signal was detected using the plate reader SPARK (Tecan, Manedorf, Switzerland), and the IC50 values were calculated from the survival curves. All experiments were conducted in triplicate to ensure the reliability and reproducibility of the results. Furthermore, the concentrations of the compounds in the medium during the treatment were verified using Flame Atomic Absorption Spectroscopy (FAAS) or Inductively Coupled Plasma Mass Spectrometry (ICP-MS).
The antiproliferative activity (IC50 valuesa) of the investigated compounds determined in 2D and 3D models of U87MG cellsb
Dark Irradiated PId Dark Irradiated PIe (3D/2D) […]
a Concentration that causes 50% inhibition of cell proliferation. b Cell monolayer or generated 3D spheroids were treated for 90 min with increasing concentrations of the investigated compounds, followed by 30 min of irradiation with blue light (420 nm; 58 Wm-2) and 70 h of drug-free incubation. c IC50 values were determined by SRB assay. d IC50 values were determined by CellTiter-Glo® 3D chemiluminescent assay. e PI - phototoxicity index was calculated as the ratio of IC50 determined under the dark conditions / IC50 determined for 420 […]
f TMI – tissue-mass index was calculated as the ratio of IC50 values determined for 3D and 2D models under irradiation conditions.
Background: Cellular ATP, detected with luciferase, serves as a proxy for viable cell number.

The test system of data set [1] is hiPSC-derived cerebral organoids. Kind of data set: Cerebral organoid volume growth after treatment (healthy tissue). Type of data set: cell-based, human. The note with it: fusion system, untreated control 25%. On the procedure:
To assess the treatment’s impact on healthy tissue, cerebral organoid volumes were measured using phase-contrast or bright-field confocal microscopy with manually defined regions of interest.

Setting [2] is: dark, 70 h drug-free, read-out: IC50 3D Dark.
The mark [3] stands for this setting: 30 min blue light 420 nm 58 W m-2, 70 h drug-free, read-out: IC50 3D Irradiated.

Each structure is given as a SMILES string. Read-outs that look alike come from different tables or passages of the source.

By IC50 is commonly meant the point on the concentration scale where inhibition reaches its midpoint. Regarding `CCCCn1c2[n+](c3cc(C(=O)OC)ccc31)[Ir-3]13([Cl])([c]4ccccc4-2)[n+]2ccccc2-c2cc(-c4ccc(C)cc4)cc([n+]21)-c1cccc[n+]13.F[P-](F)(F)(F)(F)F` [Ir4], the “PI (phototoxicity index) 3D” value in the data set on U87MG spheroids was 13.1. Further, the IC50 in the data set on U87MG spheroids (setting [2]) came out at 27.6 ± 4 µM; in the data set with U87MG spheroids (setting [3]), 2.1 ± 0.2 µM. Besides, the “TMI (3D/2D)” value with U87MG spheroids was 4. Also, the “increase in cerebral organoid volume over 120 h” value in data set [1] came to 24%.

Turning to `Cn1nnc2c(C(N)=O)ncn2c1=O` [Temozolomide, reference compound], the IC50 in the data set with U87MG spheroids (Homo sapiens, U-87 MG, light or radiation study, 30 min blue light 420 nm 58 W m-2, 70 h drug-free, read-out: IC50 3D Irradiated) was 95.3 ± 6.4 µM; in the data set with U87MG spheroids (Homo sapiens, U-87 MG, dark, 70 h drug-free, read-out: IC50 3D Dark), at least 100 µM. For the same molecule, the “increase in cerebral organoid volume over 120 h” value in data set [1] is on record as 21%.

On to `Cc1ccc(-c2cc3[n+]4c(c2)-c2cccc[n+]2[Ir-3]42([Cl])([c]4c(ccc5c4OCO5)-c4n(Cc5ccc(C(F)(F)F)cc5)c5ccccc5[n+]42)[n+]2ccccc2-3)cc1.F[P-](F)(F)(F)(F)F` [Ir5], for which the “PI (phototoxicity index) 3D” value with U87MG spheroids stood at 4.5. Moreover, the figures for the IC50 in the data set with U87MG spheroids (setting [2]) and with U87MG spheroids (setting [3]) were 32.3 ± 3.3 µM and 7.1 ± 0.8 µM, respectively. In the data set with U87MG spheroids, the “TMI (3D/2D)” value came out at 16.9.

Take `Cc1ccc(-c2cc3[n+]4c(c2)-c2cccc[n+]2[Ir-3]42([Cl])([c]4cc5ccccc5cc4-c4n(Cc5ccc(C(F)(F)F)cc5)c5ccccc5[n+]42)[n+]2ccccc2-3)cc1.F[P-](F)(F)(F)(F)F` [Ir3]: the “PI (phototoxicity index) 3D” value in the data set on U87MG spheroids amounted to 6.1. The IC50 in the data set on U87MG spheroids (setting [2]) was determined as 36.6 ± 4.5 µM; with U87MG spheroids (setting [3]), 6 ± 1 µM. Besides, the “TMI (3D/2D)” value in the data set with U87MG spheroids is listed as 9.0.
